pIC50: −log10 of the molar value.
Each molecule was assayed against T1, TrkA (Homo sapiens, UniProt P04629) (assay: Tyrosine kinase assay (Kinase-Glo or AlphaScreen), TrkA). Details: biochemical tyrosine kinase assay.
T1 construct: 6×His- or GST-tagged kinase domain fragments of the corresponding RTKs expressed in baculovirus system; host or cells: baculovirus system
Experimental: To determine inhibition of several tyrosine kinases, such as IGF1R, InsR, Alk, TrkA and Jak2, kinase assays are conducted using either Kinase-Glo (Promega) or AlphaScreen (PerkinElmer) kinase assay platforms. The Kinase-Glo Luminescent Kinase Assay is a homogeneous method for measuring kinase activity by determining the amount of ATP remaining after a kinase reaction. The luminescent signal is proportional to the amount of ATP and inversely proportional to the amount of kinase activity. Tyrosine kinase PT66 AlphaScreen Assay is a high-sensitivity homogeneous, anti-phosphotyrosine antibody-mediated luminescent proximity method measuring, incorporation of phosphate in synthetic poly(Glu-Tyr) substrate. The kinase preparations used consist of purified recombinant, 6×His- or GST-tagged kinase domain fragments of the corresponding RTKs expressed in baculovirus system.
The IGF1R tyrosine kinase is assayed in Kinase-Glo ATP depletion assay using the synthetic polymer poly(Glu-Tyr, 4:1) (Sigma Chemicals) as a phosphoacceptor substrate. Each reaction mixture consists of a total volume of 10 μl and contains 40 ng of the enzyme, 5 μg of poly(Glu-Tyr), 10 μM of ATP and variable concentrations of test compounds. The mixtures also contain 50 mM Tris-HCl, pH 7.5; 5 mM MgCl2; 5 mM MnCl2; 2 mM DTT and 0.01% Tween 20. The reaction mixtures are incubated at 37° C. for 60 minutes and residual concentration of ATP in the mixture is determined by adding luciferase-containing Kinase-Glo (Promega) development reagent and counting luminescence levels using Fusion Universal Microplate Analyzer (PerkinElmer). Tested compounds are dissolved in dimethyl sulfoxide to a stock concentration of 10 mM and are typically evaluated in the assay at eight concentrations in 1 nM to 20 μM range, each in quadruplicate. […] IC50 values are derived by non-linear regression analysis using Prism 3.0 software (Graphpad Software). Other tyrosine kinases are assayed according to the same protocol after titrating amount of the enzyme to provide optimal signal-to-noise ratio and no more than 30% of total ATP consumption in the reaction conditions used.
The IGF1R tyrosine kinase is assayed in Phosphotyrosine (PT66 or PT 100) AlphaScreen chemiluminescent assay (PerkinElmer) according to the manufacturerer's recommendations. Each kinase reaction mixture consists of a total volume of 15 μl and contains 0.1-1 ng of the enzyme, 7 ng of biotinylated poly(Glu-Tyr) (Cis-Bio), 10 μM of ATP and variable concentrations of test compounds. The mixtures also contain 50 mM Tris-HCl, pH 7.5; 5 mM MgCl2; 5 mM MnCl2; 2 mM DTT and 0.01% Tween 20. The reaction mixtures are incubated at room temperature for 30 minutes. Ten (10) μl of the mixture of […] and donor beads (as supplied by the manufacturer) is then added to the reaction and the incubation is continued for an additional 60 minutes.

T1 sequence (P04629 510-781 limits assumed, species assumed): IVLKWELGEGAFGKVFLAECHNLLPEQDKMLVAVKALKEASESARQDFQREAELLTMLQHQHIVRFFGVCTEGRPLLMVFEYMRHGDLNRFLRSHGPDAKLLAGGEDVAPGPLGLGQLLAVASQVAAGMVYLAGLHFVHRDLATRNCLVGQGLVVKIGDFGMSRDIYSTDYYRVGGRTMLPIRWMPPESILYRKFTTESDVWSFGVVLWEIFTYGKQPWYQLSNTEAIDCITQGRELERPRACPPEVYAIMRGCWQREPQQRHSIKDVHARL

Compound | pIC50
Cc1ccc(OCC(O)CNc2cc[nH]c(=O)c2-c2nc3cc4c(cc3[nH]2)C(=O)N(C2CCN(C)CC2)C4=O)c(C)c1 (centres unmarked) [compound 15] | > 6.30
Cc1ccc2c(ccn2C[C@H](O)CNc2cc[nH]c(=O)c2-c2nc3cc4c(cc3[nH]2)C(=O)N(C2CCN(C)CC2)C4=O)c1 [compound 131] | > 6.30

Each molecule was assayed on CHO (chinese hamster ovary) (assay: Cell proliferation inhibition, Cell Titer-Glo, CHO). Details: Cricetulus griseus; cell proliferation assay, CHO cells.
Assay type: cell-based
Experimental: IGF1R and other tyrosine kinase inhibitors can inhibit the proliferation of certain cancer cell lines indicating their possible therapeutic utility for treating the corresponding cancer types. Cancer cell lines of interest and control normal lines, including CHO, HEK293, BA/F3, MM1, H929, COLO205, PC3, DU145, MCF7, Panc1, ACHN, Hep G2, H460, K562, TT, U87-G, CAOV-3, SK-MEL5, Karpas 299, are plated in white, clear-bottomed 384-well cell culture plates at 2500-5000 cells per well and supplied with dilutions of tested compounds After a desired period of time (typically 3 days), the number of viable cells is quantitated by using Cell Titer-Glo Luminescent Cell Viability Assay (Promega), a cell proliferation assay system based on detection of total amount of ATP present as a measure of cell metabolic activity. The plated cells are mixed with the Cell Titer-Glo developing reagent and counted in a luminescence multiwell plate reader according to the standard manufacturer's protocol to generate IC50 curves for cell proliferation inhibition.
IGF1R and other tyrosine kinase inhibitors can inhibit the proliferation of certain cancer cell lines indicating their possible therapeutic utility for treating the corresponding cancer types. Cancer cell lines of interest and control normal lines, including CHO, HEK293, BA/F3, COLO205, PC3, DU145, MCF7, Panc1, ACHN, Hep G2, H460, K562, TT, U87-MG, CAOV-3, SK-MEL5, Karpas 299 and human multiple myeloma cell lines H929, MM1s, MM1r, UTMC2, CPM2, KMS11, My5, KMS12PE, My7, JJN3, KMS18, U266, SKMM2, RPMI-8226 are plated in white, clear-bottomed 384-well cell culture plates at 2500-5000 cells per well and supplied with dilutions of tested compounds After a desired period of time (typically 3 days), the number of viable cells is quantitated by using Cell Titer-Glo Luminescent Cell Viability Assay (Promega), a cell proliferation assay system based on detection of total amount of ATP present as a measure of cell metabolic activity. The plated cells are mixed with the Cell Titer-Glo developing reagent and counted in a luminescence multiwell plate reader according to the standard manufacturer's protocol to generate IC50 curves for cell proliferation inhibition. Results are typically reported as percent of growth (% viability =(OD72h(compound)−ODday0))/(OD72h(no compound)−ODday0). Alternatively, viable cells are quantitated by using the conventional colorimetric MTT assay. The MTT assay is based on the cleavage of the yellow tetrazolium salt MTT to purple formazan crystal by metabolic active cells. The formazan is then solubilized, and the concentration determined by optical density at 570 nm. The cells plated and incubated with a compound as described above are supplemented with the solution of MTT and incubated for 2-3 hours. The growth medium is removed and dimethyl sulfoxide is added into each well to dissolve the formazan. The absorbance is measured on an ELISA plate reader with a test wavelength of 570 nm and a background subtraction wavelength of 630 nm to obtain sample signal (OD570-OD630). […] The results are reported in terms of IC50 value for a particular compound and a cell line in the standard 3-day proliferation assay using Cell Titer-Glo. […] The results are reported in terms of IC50 value for a particular compound and a cell line in the standard 3-day proliferation assay using MTT assay.

Compound | pIC50
Cc1ccc(OC[C@H](O)CNc2cc[nH]c(=O)c2-c2nc3cc4c(cc3[nH]2)CN(C2CCN(C)CC2)C4=O)c(C)c1 [compound 130] | < 4.82
Cc1ccc2c(ccn2C[C@H](O)CNc2cc[nH]c(=O)c2-c2nc3cc4c(cc3[nH]2)C(=O)N(C2CCN(C)CC2)C4=O)c1 [compound 131] | 4.82 to 5.30
Cc1ccc(OC[C@H](O)CNc2cc[nH]c(=O)c2-c2nc3cc4c(c(C)c3[nH]2)CN(C2CCN(C)CC2)C4=O)c(C)c1 [compound 132] | < 4.82
Cc1ccc(OC[C@H](O)CNc2cc[nH]c(=O)c2-c2nc3c(C)c4c(cc3[nH]2)C(=O)N(C2CCN(C)CC2)C4)c(C)c1 [compound 139] | < 4.82
Cc1ccc(OC[C@H](O)CNc2cc[nH]c(=O)c2-c2nc3c(C)c4c(cc3[nH]2)CN(C2CCN(C)CC2)C4=O)c(C)c1 [compound 140] | < 4.82
CCc1cc(C)ccc1OC[C@H](O)CNc1cc[nH]c(=O)c1-c1nc2cc3c(cc2[nH]1)CN(C1CCN(C)CC1)C3=O [compound 141] | < 4.82
Cc1ccc(OC[C@H](O)CNc2cc[nH]c(=O)c2-c2nc3cc4c(cc3[nH]2)C(=O)N(C2CCNCC2)C4=O)c(C)c1 [compound 142] | 4.82 to 5.30
CCN1CCC(N2C(=O)c3cc4nc(-c5c(NC[C@@H](O)COc6ccc(C)cc6C)cc[nH]c5=O)[nH]c4cc3C2=O)CC1 [compound 143] | < 4.82
CCN1CCC(N2Cc3cc4nc(-c5c(NC[C@@H](O)COc6ccc(C)cc6C)cc[nH]c5=O)[nH]c4cc3C2=O)CC1 [compound 144] | 4.82 to 5.30

Source: US8063225B2, “Tricyclic compound derivatives useful in the treatment of neoplastic diseases, inflammatory disorders and immunomodulatory disorders” (Chembridge Corporation, priority 2006, dated 2011)
